Where two headings read alike, the source gives them in different places.
Experiments:
[1] = test system: secreted phospholipase B (PLB activity); test: Radiometric assay, secreted PLB activity; format: biochemical, Cryptococcus neoformans H99; conditions: for PLB, percentage inhibition of activity: Secretory Cryptococcal H99 Phospholipase
Method: Fungal isolates and media. […] Isolate H99 was kindly supplied by Dr. Gary Cox (Duke University Medical Center, Durham, N.C., USA), and subcultured onto Sabouraud dextrose agar (SDA) at 30° C.
Preparation of supernatants containing secreted phospholipase activities. Isolate H99 was grown to confluence on SDA in 16 cm diameter Petri dishes for 72 h at 30° C. in air. Cells scraped from 10-20 dishes were washed sequentially with isotonic saline and imidazole buffer (10 mM imidazole, 2 mM CaCl2, 2 mM Mg Cl2, 56 mM D-Glucose, made up in isotonic saline, pH 5.5), resuspended in a volume of this buffer of about 10% of the cell volume, and incubated for 24 h at 37° C. The cell-free supernatant was separated by centrifugation as previously described and stored at −70° C.
Radiometric assay method for phospholipases. Enzyme activities were measured as described previously in a final volume of 125 μL at 37° C. For the determination of secreted PLB activity, carrier dipalmitoyl phosphatidylcholine (DPPC, final concentration 800 μM) and 1,2-di[1-^14C] palmitoyl phosphatidylcholine (20,000 dpm) were dried under nitrogen and suspended in 125 mM imidazole acetate buffer (assay buffer, pH 4.0) by sonication using a Branson 450 sonifier. The reaction time was 22 min, using 1 μg total protein and PLB activity was determined by the rate of decrease of the radiolabelled PC substrate, with appearance of the label in free fatty acid. This assay also simultaneously allows for the determination of phospholipase A, C and D activities. These activities were measured by the appearance of radiolabel from PC in Lyso PC, diacylglycerol and phosphatidic acid, respectively.
All reactions were terminated by adding 0.5 mL of chloroform:methanol (2:1 v/v). The reaction products were extracted by the method as disclosed in Bligh, E. C. and W. J. Dyer. 1959 ‘A rapid method of total lipid extraction and purification.’ Can. J. Biochem. Physiol. 37:911-917, separated by TLC and quantified as previously described. In the case of PLC activity, the TLC plates were developed in petroleum ether (BP 60-80° C.): diethyl ether: acetic acid (90:15:1, v/v/v) instead of chloroform:methanol:water (65:25:4, v/v/v).
Preparation of inhibitors and use in assays. The following compounds were tested (for structures, see FIG. 2): compound 1, 1,12-bis(tributylphosphonium)dodecane dibromide (Fluka AG, Buchs, Switzerland); compound 2, 1,10-bis(tributylammonium)-decane dibromide; compound 3, 1,12-bis(tributylammonium)do-decane dibromide (both synthesised in-house); compound 4, 1,10-bis(trimethylammonium)decane dibromide [“decamethonium”] (Sigma, St. Louis Mo., USA). All compounds were prepared as stock solutions of 700 μM in assay buffer containing 5 mM EDTA, which was then diluted serially with buffer to obtain solutions of 70, 7, 0.7 and 0.07 μM. In each assay, 45 μL of these solutions was used, and the final volume of 125 μL was made up of substrate, enzyme and buffer. The radiometric assay was carried out as above. Inhibition was calculated as the percent of substrates (DPPC or Lyso-PC) remaining in the case of PLB and LPL activities, or of DPPC produced, in the case of the LPTA activity. The amounts converted, or produced, in the inhibitor-free control were normalised to 100%, and the inhibition calculated against it. All assays were done in triplicate.
Under these conditions only PLB, LPL and LPTA activities (both secreted and cell-associated) were measured. Initially, compounds deemed to be potential inhibitors were assayed at 25 and 250 μM. Those showing some inhibition were then also assayed at 2.5 and 0.25 μM.

[2] = test system: Cryptococcus neoformans ATCC 90112; test: Antifungal susceptibility testing, microdilution MIC; format: cell-based; conditions: Cryptococcus neoformans, ATCC90112
Method: (§1) Antifungal susceptibility testing. The antifingal activity of the compounds was measured by a standard microdilution method. […] The fungal strains tested included Cryptococcus neoformans H99, Cryptococcus neoformans ATCC 90112 and Candida albicans ATCC 10231. All tests were performed in duplicate.
(§2) A range of cationic compounds were assayed for antifungal activity in a standardised serial dilution sensitivity test against C. neoformans ([…]) and C. Albicans (ATCC 10231).

[3] = test system: Candida albicans ATCC 10231; test: as above; format: cell-based; conditions: Candida albicans, ATCC10231
Method: as §1, §2

[4] = target: T1, Porcine pancreatic phospholipase A2 (Sus scrofa, UniProt P00592); test: Pancreatic phospholipase assay; format: biochemical; conditions: read-out: ppPLA2, percentage inhibition of activity
T1 construct: purchased Sigma, St. Louis MO, USA
T1 sequence (P00592 23-146): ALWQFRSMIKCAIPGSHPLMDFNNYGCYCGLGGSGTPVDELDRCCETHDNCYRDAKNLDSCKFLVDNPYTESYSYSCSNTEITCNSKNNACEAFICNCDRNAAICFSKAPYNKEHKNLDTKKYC
Method: Pancreatic phospholipase assay. Porcine pancreatic phospholipase A2 suspension in 3.2M ammonium sulfate (2.9 mg protein/mL, Sigma St.Louis Mo., USA) was used. One part of well mixed enzyme suspension was added to 4 parts of buffer (10 mM Tris/HCl, pH 8.2; 10 mM CaCl2. Activity and inhibition by test compounds was then measured by the radiometric method described in Example 2 for fungal PLB activity. However, 25 μL enzyme solution was used, and the reaction time was 1 hour. These conditions result in ˜60% substrate conversion in the inhibitor-free control.

CCCC[N+](CCCC)(CCCC)CCCCCCCCCC[N+](CCCC)(CCCC)CCCC [Compound 2, 1,10-bis(tributylammonium)-decane dibromide]
PLB assay (% inhibition) ([1]; 0.25 μM): 0%
PLB, percentage inhibition of activity ([1]; 0.25 μM): 0%
PLB assay (% inhibition) ([1]; 2.5 μM): 30%
PLB, percentage inhibition of activity ([1]; 2.5 μM): 30%
PLB assay (% inhibition) ([1]; 25 μM): 80%
PLB, percentage inhibition of activity ([1]; 25 μM): 80%
PLB assay (% inhibition) ([1]; 250 μM): 90%
PLB, percentage inhibition of activity ([1]; 250 μM): 90%
MIC ([2]; Table 6, no visible growth after 72 h at 35° C., read-out: MIC C. neof. ATCC 90112): 11 µM
MIC ([2]; Table 7, read-out: MIC (μM) Crypto. (ATCC 90112)): 11 µM
MIC ([3]; Table 6, no visible growth after 48 h at 35° C., read-out: MIC C. albicans ATCC 10231): 88 µM
MIC ([3]; Table 7, read-out: MIC (μM) C. alb. (10231)): 88 µM
inhibition at 0.25 µM ([4]; 0.25 μM): 0%
inhibition at 2.5 µM ([4]; 2.5 μM): 0%
inhibition at 25 µM ([4]; 25 μM): 25%
inhibition at 250 µM ([4]; 250 μM): 65%

From patent US7947854B2, “Bis-cationic compounds and use thereof” (The University of Sydney, priority 2003, dated 2011)
